The target of one series is JAK1 (Homo sapiens (Human), UniProt P23458). Nature of the series: Biochemical JAK kinase assay (LanthaScreen), JAK1. Conditions: converted from pIC50 with Cheng-Prusoff equation. The protocol: (§1) Assay 1: Biochemical JAK Kinase Assays
(§2) A panel of four LanthaScreen JAK biochemical assays (JAK1, 2, 3 and Tyk2) were carried in a common kinase reaction buffer (50 mM HEPES, pH 7.5, 0.01% Brij-35, 10 mM MgCl2, and 1 mM EGTA). Recombinant GST-tagged JAK enzymes and a GFP-tagged STAT1 peptide substrate were obtained from Life Technologies.
(§3) Serially diluted compounds were pre-incubated with each of the four JAK enzymes and the substrate in white 384-well microplates (Corning) at ambient temperature for 1 h. ATP was subsequently added to initiate the kinase reactions in 10 μL total volume, with 1% DMSO. […] The plates were allowed to incubate at ambient temperature for 1 h before being read on the EnVision reader (Perkin Elmer).
(§4) For dose-response analysis, percent inhibition data were plotted vs. compound concentrations, and IC50 values were determined from a 4-parameter robust fit model with the Prism software (GraphPad Software). Results were expressed as pIC50 (negative logarithm of IC50) and subsequently converted to pKi (negative logarithm of dissociation constant, Ki) using the Cheng-Prusoff equation.
A general note: TR-FRET usually uses a lanthanide donor and a delayed reading to cut background.

The next series addresses JAK3 (Homo sapiens (Human), UniProt P52333). Kind of series: Biochemical JAK kinase assay (LanthaScreen), JAK3. Conditions: converted from pIC50 with Cheng-Prusoff equation. The protocol:
as §1, §2, §3, §4

Series [1] relates to IL-13 induced STAT6 phosphorylation in BEAS-2B human lung epithelial cells. Kind of series: Cellular JAKI potency assay (AlphaScreen), BEAS-2B. In kind it is cell-based. Conditions: BEAS-2B cells. On the procedure: Assay 2: Cellular JAKI Potency Assay
The AlphaScreen JAKI cellular potency assay was carried out by measuring interleukin-13 (IL-13, R&D Systems) induced STAT6 phosphorylation in BEAS-2B human lung epithelial cells (ATCC). The anti-STAT6 antibody (Cell Signaling Technologies) was conjugated to AlphaScreen acceptor beads (Perkin Elmer), while the anti-pSTAT6 (pTyr641) antibody (Cell Signaling Technologies) was biotinylated using EZ-Link Sulfo-NHS-Biotin (Thermo Scientific).
BEAS-2B cells were grown at 37° C. in a 5% CO2 humidified incubator in 50% DMEM/50% F-12 medium (Life Technologies) supplemented with 10% FBS (Hyclone), 100 U/mL penicillin, 100 μg/mL streptomycin (Life Technologies), and 2 mM GlutaMAX (Life Technologies). On day 1 of the assay, cells were seeded at a 7,500 cells/well density in white poly-D-lysine-coated 384-well plates (Corning) with 25 μL medium, and were allowed to adhere overnight in the incubator. On day 2 of the assay, the medium was removed and replaced with 12 μL of assay buffer (Hank's Balanced Salt Solution/HBSS, 25 mM HEPES, and 1 mg/ml bovine serum albumin/BSA) containing dose-responses of test compounds. Compounds were serially diluted in DMSO and then diluted another 1000-fold in media to bring the final DMSO concentration to 0.1%. Cells were incubated with test compounds at 37° C. for 1 h, and followed by the addition of 12 μl of pre-warmed IL-13 (80 ng/mL in assay buffer) for stimulation. After incubating at 37° C. for 30 min, the assay buffer (containing compound and IL-13) was removed, and 10 μL of cell lysis buffer (25 mM HEPES, 0.1% SDS, 1% NP-40, 5 mM MgCl2, 1.3 mM EDTA, 1 mM EGTA, and supplement with Complete Ultra mini protease inhibitors and PhosSTOP from Roche Diagnostics). The plates were shaken at ambient temperature for 30 min before the addition of detection reagents. A mixture of biotin-anti-pSTAT6 and anti-STAT6 conjugated acceptor beads was added first and incubated at ambient temperature for 2 h, followed by the addition of streptavidin conjugated donor beads (Perkin Elmer). After a minimum of 2 h incubation, the assay plates were read on the EnVision plate reader. AlphaScreen luminescence signals were recorded and utilized to calculate the percent inhibition values based on DMSO and background controls.
For dose-response analysis, percent inhibition data were plotted vs. compound concentrations, and IC50 values were determined from a 4-parameter robust fit model with the Prism software. Results may also be expressed as the negative logarithm of the IC50 value, pIC50.
Test compounds having a lower IC50 value or higher pIC50 value in this assay show greater inhibition of IL-13 induced STAT6 phosphorylation.

Series [2] concerns IL-13 induced pSTAT6 induction in lung tissue. Kind of series: Murine model of IL-13 induced pSTAT6 induction in lung tissue. In kind it is in vivo. The note with it: mouse lung, 1 mg/mL 50 μL oral aspiration, IL-13 challenge 4 h after dose, lungs at 5 hours. The text has this:
Assay 4: Murine (Mouse) Model of IL-13 Induced pSTAT6 Induction in Lung Tissue
Il-13 is an important cytokine underlying the pathophysiology of asthma (Kudlacz et al. Eur. J. Pharmacol, 2008, 582,154-161). IL-13 binds to cell surface receptors activating members of the Janus family of kinases (JAK) which then phosphorylate STAT6 and subsequently activates further transcription pathways. In the described model, a dose of IL-13 was delivered locally into the lungs of mice to induce the phosphorylation of STAT6 (pSTAT6) which is then measured as the endpoint.
Adult balb/c mice from Harlan were used in the assay. On the day of study, animals were lightly anesthetized with isoflurane and administered either vehicle or test compound (1 mg/mL, 50 μL total volume over several breaths) via oral aspiration. Animals were placed in lateral recumbency post dose and monitored for full recovery from anesthesia before being returned to their home cage. Four hours later, animals were once again briefly anesthetized and challenged with either vehicle or IL-13 (0.03 μg total dose delivered, 50 μL total volume) via oral aspiration before being monitored for recovery from anesthesia and returned to their home cage. One hour after vehicle or IL-13 administration, lungs were collected for both pSTAT6 detection using an anti-pSTAT6 ELISA (rabbit mAb capture/coating antibody; mouse mAb detection/report antibody: anti-pSTAT6-pY641; secondary antibody: anti-mouse IgG-HRP) and analyzed for total drug concentration as described above in Assay 3.
Selected compounds of the invention were tested in the assay. Activity in the model is evidenced by a decrease in the level of pSTAT6 present in the lungs of treated animals at 5 hours compared to the vehicle treated, IL-13 challenged control animals. The difference between the control animals which were vehicle-treated, IL-13 challenged and the control animals which were vehicle-treated, vehicle challenged dictated the 0% and 100% inhibitory effect, respectively, in any given experiment.

For series [3], the system named is Alternaria alternata-induced eosinophilic inflammation of the lung (BALF eosinophils). Nature of the series: Murine model of Alternaria alternata-induced eosinophilic inflammation of the lung. In kind it is in vivo. Conditions: mouse, oropharyngeal aspiration 0.03-1.0 mg/mL, BALF 48 h after challenge; maximum statistically significant inhibition. From the text:
Assay 5: Murine Model of Alternaria alternata-Induced Eosinophilic Inflammation of the Lung
Airway eosinophilia is a hallmark of human asthma. Alternaria alternata is a fungal aeroallergen that can exacerbate asthma in humans and induces eosinophilic inflammation in the lungs of mice (Havaux et al. Clin Exp Immunol. 2005 February; 139(2):179-88).
Seven- to nine-week old male C57 mice from Taconic were used in the study. On the day of study, animals were lightly anesthetized with isoflurane and administered either vehicle or test compound (0.03-1.0 mg/mL, 50 μL total volume over several breaths) via oropharyngeal aspiration. Animals were placed in lateral recumbency post dose and monitored for full recovery from anesthesia before being returned to their home cage. One hour later, animals were once again briefly anesthetized and challenged with either vehicle or alternaria extract (200 ug total extract delivered, 50 μL total volume) via oropharyngeal aspiration before being monitored for recovery from anesthesia and returned to their home cage. Forty-eight hours after alternaria administration, bronchoalveolar lavage fluid (BALF) was collected and eosinophils were counted in the BALF using the Advia 120 Hematology System (Siemens). […]

Series [4] is described as follows: Pharmacokinetics in plasma and lung in mouse. The note with it: oral aspiration, 0.2 mg/mL 50 μL, lung AUC (μg hr/g) / plasma AUC (μg hr/mL).
Another series deals with JAK2 (Homo sapiens (Human), UniProt O60674). Nature of the series: Biochemical JAK kinase assay (LanthaScreen), JAK2. Conditions: converted from pIC50 with Cheng-Prusoff equation. The protocol: as §1, §2, §3, §4
JAK2, sequence (O60674 whole entry): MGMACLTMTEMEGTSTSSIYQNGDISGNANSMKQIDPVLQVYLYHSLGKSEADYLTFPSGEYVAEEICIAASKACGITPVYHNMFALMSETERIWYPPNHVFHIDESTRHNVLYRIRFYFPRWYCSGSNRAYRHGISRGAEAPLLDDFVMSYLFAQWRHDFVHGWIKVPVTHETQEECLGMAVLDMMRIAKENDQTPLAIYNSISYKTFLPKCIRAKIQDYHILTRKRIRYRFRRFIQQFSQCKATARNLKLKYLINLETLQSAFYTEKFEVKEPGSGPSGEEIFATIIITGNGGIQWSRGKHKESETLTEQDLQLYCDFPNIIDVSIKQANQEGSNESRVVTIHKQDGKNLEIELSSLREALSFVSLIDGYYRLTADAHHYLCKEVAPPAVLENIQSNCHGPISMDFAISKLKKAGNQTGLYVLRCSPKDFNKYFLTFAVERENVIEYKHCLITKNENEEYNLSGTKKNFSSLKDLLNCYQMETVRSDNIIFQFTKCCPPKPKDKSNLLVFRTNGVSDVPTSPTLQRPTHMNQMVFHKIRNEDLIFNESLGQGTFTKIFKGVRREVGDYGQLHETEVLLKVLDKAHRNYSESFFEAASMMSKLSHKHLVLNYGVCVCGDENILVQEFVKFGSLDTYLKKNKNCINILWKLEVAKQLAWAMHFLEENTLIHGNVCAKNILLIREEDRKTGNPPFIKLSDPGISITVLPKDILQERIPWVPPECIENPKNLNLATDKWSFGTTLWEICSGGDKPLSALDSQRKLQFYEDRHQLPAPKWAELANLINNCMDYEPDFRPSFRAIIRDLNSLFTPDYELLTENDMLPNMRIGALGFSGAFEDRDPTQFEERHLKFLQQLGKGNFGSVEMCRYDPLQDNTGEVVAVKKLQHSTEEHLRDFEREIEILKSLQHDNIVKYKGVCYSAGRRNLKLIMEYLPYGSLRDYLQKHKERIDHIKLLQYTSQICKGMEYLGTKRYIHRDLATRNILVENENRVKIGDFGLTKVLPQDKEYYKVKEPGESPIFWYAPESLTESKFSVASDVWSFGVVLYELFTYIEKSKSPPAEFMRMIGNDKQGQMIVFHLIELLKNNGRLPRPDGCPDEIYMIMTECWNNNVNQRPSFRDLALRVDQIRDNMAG

Structures are written as SMILES.

JAK1, sequence (P23458 whole entry): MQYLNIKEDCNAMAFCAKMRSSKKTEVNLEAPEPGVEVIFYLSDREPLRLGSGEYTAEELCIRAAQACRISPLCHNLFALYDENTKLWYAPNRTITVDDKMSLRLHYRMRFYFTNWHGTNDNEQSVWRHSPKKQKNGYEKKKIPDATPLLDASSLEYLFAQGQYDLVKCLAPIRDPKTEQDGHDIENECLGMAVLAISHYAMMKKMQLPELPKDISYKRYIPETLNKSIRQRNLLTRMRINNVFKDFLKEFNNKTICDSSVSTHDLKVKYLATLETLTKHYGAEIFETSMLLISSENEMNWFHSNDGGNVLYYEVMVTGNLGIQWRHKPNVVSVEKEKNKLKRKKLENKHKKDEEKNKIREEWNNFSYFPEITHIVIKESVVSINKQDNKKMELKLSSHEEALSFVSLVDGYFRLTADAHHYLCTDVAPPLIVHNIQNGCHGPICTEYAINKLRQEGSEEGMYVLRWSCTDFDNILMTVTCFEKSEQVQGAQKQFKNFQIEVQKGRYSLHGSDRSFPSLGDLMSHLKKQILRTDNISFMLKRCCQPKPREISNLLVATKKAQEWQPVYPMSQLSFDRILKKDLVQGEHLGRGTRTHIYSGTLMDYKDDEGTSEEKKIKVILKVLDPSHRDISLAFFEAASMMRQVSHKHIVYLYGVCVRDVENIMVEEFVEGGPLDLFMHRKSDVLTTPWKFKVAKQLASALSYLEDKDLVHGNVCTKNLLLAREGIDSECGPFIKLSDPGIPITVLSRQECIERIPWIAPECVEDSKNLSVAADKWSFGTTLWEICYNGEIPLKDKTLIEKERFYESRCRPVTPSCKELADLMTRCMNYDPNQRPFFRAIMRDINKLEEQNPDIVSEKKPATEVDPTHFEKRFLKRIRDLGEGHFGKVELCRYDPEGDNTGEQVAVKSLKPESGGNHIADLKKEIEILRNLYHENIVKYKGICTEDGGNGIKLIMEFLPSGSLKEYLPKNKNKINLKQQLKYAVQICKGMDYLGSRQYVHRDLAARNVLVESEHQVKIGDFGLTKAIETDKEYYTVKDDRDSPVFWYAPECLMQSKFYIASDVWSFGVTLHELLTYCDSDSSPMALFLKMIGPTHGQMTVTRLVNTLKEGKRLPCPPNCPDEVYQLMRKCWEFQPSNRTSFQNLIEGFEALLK
JAK3, sequence (P52333 whole entry): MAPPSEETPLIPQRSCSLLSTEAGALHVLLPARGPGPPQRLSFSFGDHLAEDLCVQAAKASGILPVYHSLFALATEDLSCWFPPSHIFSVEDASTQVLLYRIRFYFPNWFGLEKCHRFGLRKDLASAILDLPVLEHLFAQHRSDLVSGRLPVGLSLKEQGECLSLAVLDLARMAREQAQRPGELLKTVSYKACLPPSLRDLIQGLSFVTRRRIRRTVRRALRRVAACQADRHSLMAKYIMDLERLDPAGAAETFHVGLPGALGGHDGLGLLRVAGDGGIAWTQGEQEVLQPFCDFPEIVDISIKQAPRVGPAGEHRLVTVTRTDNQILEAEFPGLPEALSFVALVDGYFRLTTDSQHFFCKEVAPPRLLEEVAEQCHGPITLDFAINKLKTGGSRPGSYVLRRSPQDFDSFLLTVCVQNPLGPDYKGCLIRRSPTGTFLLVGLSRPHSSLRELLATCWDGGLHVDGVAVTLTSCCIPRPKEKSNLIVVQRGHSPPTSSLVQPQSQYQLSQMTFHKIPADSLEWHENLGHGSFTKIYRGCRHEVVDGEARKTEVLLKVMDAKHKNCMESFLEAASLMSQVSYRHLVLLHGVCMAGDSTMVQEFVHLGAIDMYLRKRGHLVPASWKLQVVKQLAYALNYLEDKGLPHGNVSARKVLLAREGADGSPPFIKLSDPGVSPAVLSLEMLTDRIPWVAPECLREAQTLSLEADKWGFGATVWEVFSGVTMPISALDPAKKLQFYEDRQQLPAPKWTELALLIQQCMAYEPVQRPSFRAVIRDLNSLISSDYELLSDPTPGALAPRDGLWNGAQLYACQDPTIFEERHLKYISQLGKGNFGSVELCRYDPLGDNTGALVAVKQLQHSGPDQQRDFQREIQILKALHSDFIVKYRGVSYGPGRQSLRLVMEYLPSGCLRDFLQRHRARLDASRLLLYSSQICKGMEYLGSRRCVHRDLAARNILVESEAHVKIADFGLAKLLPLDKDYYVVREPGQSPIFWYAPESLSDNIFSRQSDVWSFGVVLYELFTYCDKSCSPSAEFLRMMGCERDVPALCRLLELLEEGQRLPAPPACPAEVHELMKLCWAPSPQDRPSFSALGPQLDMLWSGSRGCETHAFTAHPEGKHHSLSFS

Turning to `CCCN1Cc2[nH]c(-c3n[nH]c4cc(-c5cc(F)c(O)cc5CC)ccc34)nc2C[C@H]1C(=O)N1CC(N(C)C)C1` [Example 4, (S)-(3-(dimethylamino)azetidin-1-yl)(2-(6-(2-ethyl-5-fluoro-4-hydroxyphenyl)-1H-indazol-3-yl)-5-propyl-4,5,6,7-tetrahydro-3H-imidazo[4,5-c]pyridin-6-yl)methanone], the Ki is 0.06 nM on JAK1 and 0.13 nM at JAK3. The same compound displayed an IC50 in series [1] (Homo sapiens) of 7.4 nM. Moreover, the “pSTAT6 inhibition Assay 4” value in series [2] is “A (A represents between 60% and 80% inhibition)”. In series [3], the “Percent Inhibition of Alternaria-induced BALF Eosinophils” value is 79%. Further, the “Lung to Plasma ratio Assay 3” value in series [4] was “C (C denotes a ratio between 20 and 50)”.
At JAK2, `CCc1cc(O)c(F)cc1-c1ccc2c(-c3nc4c([nH]3)CN(CC)[C@@H](C(=O)N3CC(N5CCCCC5)C3)C4)n[nH]c2c1` [Example 8-15] returned a Ki of 0.03 nM. Further, the IC50 in series [1] was found to be 5.6 nM. In series [2], the “pSTAT6 inhibition Assay 4” value was “C (C represents between 25% and 40% inhibition)”.

A word on the Ki: it is the dissociation constant of the complex between target and ligand, obtained from inhibition or displacement. A low value points to higher affinity. In general, IC50 refers to the concentration that gives 50% inhibition.

The values above are taken from patent US10196393B2, “JAK inhibitors containing a 4-membered heterocyclic amide” (THERAVANCE BIOPHARMA R&D IP, LLC, priority 2017, dated 2019).
